How the values were obtained:
PDE4B1 (S133D) = PDE4B1 (S133D) (Homo sapiens, UniProt Q07343, S133D/S659A/S661A); experiment: PDE4 enzyme inhibition assay, counter-screen; assay type: biochemical
[1] = Radioligand lipophilicity; assay type: physicochemical; conditions: n-octanol/sodium phosphate buffer, pH 7.4
[2] = Mouse iv cassette pharmacokinetics, brain uptake; assay type: in vivo, CD1 mice; conditions: intravenous dosing; SUV = brain Cmax (ng/mL)/dose (mg/kg)/1000
[3] = target: serotonin 5-HT2B receptor (Homo sapiens, UniProt P41595); experiment: NIMH Psychoactive Drug Screening Panel, hit; assay type: binding
[4] = test system: panel of GPCRs and other binding sites; experiment: NIMH Psychoactive Drug Screening Panel
PDE4D [5] = experiment: PET imaging in monkey brain, baseline and preblock; assay type: in vivo, rhesus monkeys (Macaca mulatta)
Human PDE4D7* (S129D) = Human PDE4D7* (S129D) (Homo sapiens, UniProt Q08499, S190D/S715A/S717A); experiment: PDE4 enzyme inhibition assay
PDE4D [6] = target: PDE4D (Homo sapiens, UniProt Q08499); experiment: PET imaging in human brain; assay type: in vivo; conditions: po, read-out: occupancy of the target enzyme
PDE4D (Homo sapiens, UniProt Q08499), sequence (Q08499 307-809 limits assumed): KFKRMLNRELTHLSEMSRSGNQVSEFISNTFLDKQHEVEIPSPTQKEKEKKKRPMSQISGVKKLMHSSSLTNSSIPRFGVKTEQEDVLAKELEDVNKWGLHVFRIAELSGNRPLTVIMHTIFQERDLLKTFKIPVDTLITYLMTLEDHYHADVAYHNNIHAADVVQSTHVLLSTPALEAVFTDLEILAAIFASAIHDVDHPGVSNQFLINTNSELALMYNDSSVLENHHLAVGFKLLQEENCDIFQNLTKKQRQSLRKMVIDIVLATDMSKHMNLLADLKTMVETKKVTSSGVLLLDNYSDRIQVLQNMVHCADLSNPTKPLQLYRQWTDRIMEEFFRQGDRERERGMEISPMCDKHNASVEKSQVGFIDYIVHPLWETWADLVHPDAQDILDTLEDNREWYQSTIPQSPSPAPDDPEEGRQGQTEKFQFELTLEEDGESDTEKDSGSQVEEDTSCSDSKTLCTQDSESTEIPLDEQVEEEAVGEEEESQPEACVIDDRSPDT

PDE4B1 (S133D), sequence (Q07343 whole entry S133D/S659A/S661A): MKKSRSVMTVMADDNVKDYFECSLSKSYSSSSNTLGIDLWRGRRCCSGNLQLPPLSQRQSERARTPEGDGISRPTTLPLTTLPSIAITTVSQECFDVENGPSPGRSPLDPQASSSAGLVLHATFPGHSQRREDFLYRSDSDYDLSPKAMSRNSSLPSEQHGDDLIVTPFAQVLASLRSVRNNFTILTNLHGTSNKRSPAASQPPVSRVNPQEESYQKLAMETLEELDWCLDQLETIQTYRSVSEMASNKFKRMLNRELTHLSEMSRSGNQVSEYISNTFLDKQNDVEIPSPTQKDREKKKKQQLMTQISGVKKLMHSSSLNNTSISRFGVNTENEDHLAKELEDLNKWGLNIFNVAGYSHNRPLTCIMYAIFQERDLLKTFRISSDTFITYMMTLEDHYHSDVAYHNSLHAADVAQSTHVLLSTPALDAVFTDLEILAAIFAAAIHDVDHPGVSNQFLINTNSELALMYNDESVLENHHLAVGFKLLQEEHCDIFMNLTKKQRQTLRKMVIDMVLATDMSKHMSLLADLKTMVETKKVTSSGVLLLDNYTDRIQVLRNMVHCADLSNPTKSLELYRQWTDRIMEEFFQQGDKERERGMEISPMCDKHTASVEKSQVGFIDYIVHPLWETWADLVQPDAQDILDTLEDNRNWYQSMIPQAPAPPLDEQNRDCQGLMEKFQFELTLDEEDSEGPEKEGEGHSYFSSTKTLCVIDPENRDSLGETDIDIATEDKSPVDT
Human PDE4D7* (S129D), sequence (Q08499 1-748 isoform Q08499-11 S129D/S654A/S656A): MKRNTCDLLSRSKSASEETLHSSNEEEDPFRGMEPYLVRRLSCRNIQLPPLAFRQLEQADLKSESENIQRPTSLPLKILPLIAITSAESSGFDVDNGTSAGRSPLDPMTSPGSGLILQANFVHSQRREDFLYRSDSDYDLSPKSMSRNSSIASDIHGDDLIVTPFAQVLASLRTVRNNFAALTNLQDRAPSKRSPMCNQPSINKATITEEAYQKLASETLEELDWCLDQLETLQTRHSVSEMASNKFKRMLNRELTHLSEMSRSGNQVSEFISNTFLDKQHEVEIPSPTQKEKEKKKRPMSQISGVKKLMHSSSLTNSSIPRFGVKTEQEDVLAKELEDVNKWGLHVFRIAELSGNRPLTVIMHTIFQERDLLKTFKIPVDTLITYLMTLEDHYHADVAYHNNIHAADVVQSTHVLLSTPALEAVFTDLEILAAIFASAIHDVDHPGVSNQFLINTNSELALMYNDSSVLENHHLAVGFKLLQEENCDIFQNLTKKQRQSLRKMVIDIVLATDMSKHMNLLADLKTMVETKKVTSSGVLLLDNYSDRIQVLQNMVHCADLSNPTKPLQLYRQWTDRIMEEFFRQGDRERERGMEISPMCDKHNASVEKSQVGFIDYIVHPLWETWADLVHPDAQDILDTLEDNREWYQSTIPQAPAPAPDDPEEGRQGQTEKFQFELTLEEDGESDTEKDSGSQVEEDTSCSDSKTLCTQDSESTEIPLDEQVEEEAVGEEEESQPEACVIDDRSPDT
serotonin 5-HT2B receptor, sequence (P41595 whole entry): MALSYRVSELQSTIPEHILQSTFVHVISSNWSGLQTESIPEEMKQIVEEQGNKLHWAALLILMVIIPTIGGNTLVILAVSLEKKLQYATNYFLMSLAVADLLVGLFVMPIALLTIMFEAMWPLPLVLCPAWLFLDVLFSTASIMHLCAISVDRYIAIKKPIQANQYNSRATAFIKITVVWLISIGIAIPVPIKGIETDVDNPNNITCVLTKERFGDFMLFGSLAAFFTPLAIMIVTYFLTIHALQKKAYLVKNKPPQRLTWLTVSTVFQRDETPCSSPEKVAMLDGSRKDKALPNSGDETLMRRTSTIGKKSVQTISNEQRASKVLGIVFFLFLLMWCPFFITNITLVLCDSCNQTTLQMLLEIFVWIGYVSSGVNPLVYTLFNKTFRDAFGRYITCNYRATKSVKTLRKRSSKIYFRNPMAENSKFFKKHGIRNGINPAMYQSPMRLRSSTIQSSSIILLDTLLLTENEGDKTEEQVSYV

Compound	IC50 (PDE4B1 (S133D)) [nM]	logD [1]	SUV, brain uptake in mice [2] [SUV]	further results
COc1ccc(Cc2cn[nH]c2)nc1-c1cccc([N+](=O)[O-])c1 [Compound 6]	1120	2.89	1.76	IC50 [3]: 766 nM; off-target binding activity [4]: did not reveal significant off-target binding activity
COc1ccc(Cc2ccncc2)nc1-c1cccc([N+](=O)[O-])c1 [Compound 5, 3-methoxy-2-(3-nitrophenyl)-6-[(pyridin-4-yl)methyl]pyridine]	280	3.38	1.76	
COc1ccc(C2CNC(=O)C2)cc1OC1CCCC1 (centres unmarked) [rolipram]				PDE4D target occupancy (Lassen plot) (PDE4D [5]; radioligand [11C]T1650, blocking dose 0.2 mg/kg i.v.): 63%; PDE4D target occupancy (Lassen plot) (PDE4D [5]; radioligand [11C]T1650, blocking dose 1.0 mg/kg i.v.): 93%; PDE4D target occupancy (Lassen plot) (PDE4D [5]; radioligand [11C]T1660, rolipram 1.0 mg/kg i.v.): 79%
Cn1cc(Cc2ccc(OC(F)F)c(-c3cccc(Cl)c3)n2)cn1 [Compound 4, 2-(3-chlorophenyl)-3-(difluoromethoxy)-6-[(1-methyl-1H-pyrazol-4-yl)methyl]pyridine]	858	3.07	1.44	IC50 (Human PDE4D7* (S129D)): 0.5 nM
O=C(O)Cc1ccc(Cc2cc(-c3cccc(Cl)c3)nc(C(F)(F)F)c2)cc1 [BPN14770]				PDE4D target occupancy (Lassen plot) (PDE4D [5]; radioligand [11C]T1650, blocking dose 3 mg/kg i.v.): 63%; receptor occupancy at 50 mg (PDE4D [6]): ~40%
COc1ccc(Cc2ccncc2)nc1-c1cccc(Cl)c1 [Compound 3, 2-(3-chlorophenyl)-3-methoxy-6-[(pyridin-4-yl)methyl]pyridine]	720	3.45	0.94	
